Data on one substance can be found in PMC4426631, “Insect antimicrobial peptides show potentiating functional interactions against Gram-negative bacteria” (Proceedings of the Royal Society B: Biological Sciences, 2015).

For one test, the system named is E. coli strain JM83. Description: E. coli permeabilization assay (β-galactosidase leakage). It counts as cell-based. How it is done:
The membrane permeabilizing activities of AMPs were determined using E. coli strain JM83 on the basis of β-galactosidase activity leaking from the cytoplasm, as described in detail in the electronic supplementary material. Living bacteria incubated with medium only were used as a negative control and bacteria killed by treatment with 5 µM synthetic cecropin B (Sigma-Aldrich) were used as a positive control (100% permeabilization). Before setting the perforation level of the positive control to 100%, the perforation value obtained for the negative control was subtracted from all other measurements. All assays were carried out three times, each time in triplicate. The results were presented as means ± s.d. (n = 3) based on statistical analysis using Student's t-test. […]
i) Peptide synthesis and modification.
The peptide sequences shown in Tabl es S1 an d S4 were selected according to their repo rted structural and functional properties, synthesized and purified to >95%. […]
The membran e p ermeabilizing activities of AMPs were determined using E. coli strain JM83 on the basis of β-gal actosidase activit y leakin g from the c ytoplasm. […] The samples were incubated at 37°C for 90 min and the absorbance was measured at 405 nm , which is proportional to the amount of released β-gal act osidase. […]

A further test has as its system E. coli strain D22. Further details: method as in PMID 9219367. Conditions: E. coli strain D22, which has a defective cell envelope; ref [46]; cited from earlier work. The text has this: In the original report, the authors used E. coli strain D22, which has a defective cell envelope.

Cf = 5(6)-carboxyfluorescein

With “abaecin: proline-rich peptide abaecin, species version not specified at the place (Cf-FVPYNPPRPGQSKPFPSFPGHGPFNPKIQWPYPLPNPGH-NH2)”, the “perforation of the bacterial envelope, abaecin alone” value with E. coli strain JM83 (20 µM abaecin, pH 6.8 phosphate buffer, 45 min, 37°C, 405 nm, relative to 5 µM cecropin B = 100%, n = 3) is given as “approximately 4.8%”. In addition, the “increase in membrane permeability, in words” value in the test on E. coli strain JM83 (peptide alone) is on record as “only marginally increased”. The antibacterial activity result in the test on E. coli strain D22 is “antibacterial activity was demonstrated”.
